Assay results: the NIST ThermoML archive (doi:10.1021/je060136y)
Several values for one entry are separate records, joined by “and”; a condition that tells them apart may be missing. Identical values can stand only once. ± gives the expanded uncertainty stated by the source.

Experiment: activity coefficient (dimensionless); of the first substance listed, at infinite dilution; xn = mol fraction of the nth substance listed
Conditions: Liquid, x1 = 0
[1] = 333.15 K, Rayleigh distillation method
[2] = 343.15 K, Rayleigh distillation method
[3] = 353.15 K, Rayleigh distillation method

SMILES | activity coefficient (298.15 K, headspace analysis) | activity coefficient [1] | activity coefficient [2] | activity coefficient [3] | activity coefficient (372.47 K, ciculation still method) | activity coefficient (313.15 K, headspace analysis) | activity coefficient (372.65 K, circulation still method) | activity coefficient (372.82 K, circulation still method) | activity coefficient (372.85 K, ciculation still method)
Nc1ccccc1 [aniline] + O | 145 ± 15 | 130 ± 13 | 121 and 119 | 111 ± 11 | 92.7 ± 9.3 | – | – | – | –
NC1CCCCC1 [cyclohexylamine] + O | 19 ± 2 | 36.7 ± 3.7 | 44.8 ± 4.5 | 51.2 ± 5.1 | – | 29.1 ± 2.9 | 64.5 ± 6.5 | 53.5 and 64.6 | –
O=[N+]([O-])c1ccccc1 [nitrobenzene] + O | – | 2450 and 2320 | 2150 ± 220 | 1640 and 1660 | – | – | – | – | 1320 ± 130
